Here are results for nine compounds from patent US3984481A, “Bis-2-substituted-thiovinyl sulfones” (Chevron Research Company, priority 1976, dated 1976).

Assay [1] relates to Elodea. Put plainly: Algae control (aquatic weed control) test. The class given is in vivo. The following applies: read-out: Percent Aquatic Weed Control. How it is done:
(§1) Representative compounds of the invention were tested as algicides by the following method. The algae test species were Lemna, Elodea and Spirolina. An acetone solution of the test compound and a small amount of an alkylarylpolyoxyethylene glycol-containing surfactant was prepared. This solution was mixed with a nutrient broth in a quantity sufficient to give a concentration of 2 ppm. A 240 ml container was filled with this mixture. A sample of the test algae was added to each container and the container was then placed in an illuminated environment and maintained at a temperature of about 20°C for incubation. The containers were observed periodically for algae growth (as compared to an untreated check). The algicidal effectiveness of the test compound was determined based on a final observation of algae growth after 7 to 10 days. The results of the test on a 0 to 100 basis -- 0 indicating no effectiveness and 100 indicating complete effectiveness -- are reported in Table III.

Assay [2] has as its system Lemna. The assay can be described thus: Algae control (aquatic weed control) test. The following applies: read-out: Percent Aquatic Weed Control. The class given is in vivo. The protocol: as §1
Assay [3] deals with Spirolina. The assay can be described thus: Algae control (aquatic weed control) test. Conditions: read-out: Percent Aquatic Weed Control. It counts as in vivo. How it is done: as §1
The test system of assay [4] is Pythium ultimum. The assay can be described thus: Mycelial inhibition test.
Assay [5] deals with Rhizoctonia solani. The assay can be described thus: Mycelial inhibition test.
In assay [6] the test system is Aspergillus niger. Put plainly: Mycelial inhibition test.
Assay [7] has as its system Fusarium moniloforma. The assay can be described thus: Mycelial inhibition test.
Assay [8] concerns Botrytis cinerea. Put plainly: Mycelial inhibition test.
[9] abbreviates: Elodea, 2 ppm, 20°C, 7 to 10 days, 0 no effectiveness, 100 complete effectiveness.
Where [10] appears, read: 2 ppm, 20°C, 7 to 10 days, 0 no effectiveness, 100 complete effectiveness.
Where [11] appears, read: Spirolina, 2 ppm, 20°C, 7 to 10 days, 0 no effectiveness, 100 complete effectiveness.
[12] abbreviates: Pythium ultimum, 99% control, 25°C, 24 hours, 500 ppm acetone solution sprayed.
The mark [13] stands for this setting: Rhizoctonia solani, 99% control, 25°C, 24 hours, 500 ppm acetone solution sprayed.
The mark [14] stands for this setting: Aspergillus niger, 99% control, 25°C, 24 hours, 500 ppm acetone solution sprayed.
The mark [15] stands for this setting: Fusarium moniloforma, 99% control, 25°C, 24 hours, 500 ppm acetone solution sprayed.
[16] abbreviates: Botrytis cinerea, 99% control, 25°C, 24 hours, 500 ppm acetone solution sprayed.

Where two headings read alike, the source gives them in different places.

Regarding `O=S(=O)(C=CSc1ccc(F)cc1)C=CSc1ccc(F)cc1` [Compound 5], the results for the inhibition at 2 ppm in assay [1] (setting [9]), in assay [2] (setting [10]) and in assay [3] (setting [11]) were 70%, 30% and 80%, respectively. Besides, the “Mycelia Inhibition, micrograms/cm^2 for 99% control” value in assay [4] (setting [12]), in assay [5] (setting [13]), in assay [6] (setting [14]), in assay [7] (setting [15]) and in assay [8] (setting [16]) was over 1.7 micrograms/cm^2 each time.
For `O=S(=O)(C=CSc1cc(Cl)ccc1Cl)C=CSc1cc(Cl)ccc1Cl` [Compound 4], the inhibition at 2 ppm in assay [1] (setting [9]) came to 70%; in assay [2] (setting [10]), 39%; in assay [3] (setting [11]) it was 80%. The “Mycelia Inhibition, micrograms/cm^2 for 99% control” value in assay [4] (setting [12]) is on record as over 1.7 micrograms/cm^2; in assay [5] (setting [13]), 1.2 micrograms/cm^2; in assay [6] (setting [14]), over 1.7 micrograms/cm^2; in assay [7] (setting [15]), over 1.7 micrograms/cm^2; in assay [8] (setting [16]), 0.70 micrograms/cm^2.
Turning to `O=S(=O)(CCSc1ccc(Cl)cc1)CCSc1ccc(Cl)cc1` [Compound 10, bis-2-(4-chlorophenylthio)ethyl sulfone, reference compound], the inhibition at 2 ppm in assay [1] (setting [9]), in assay [2] (setting [10]) and in assay [3] (setting [11]) was 0% each time. Besides, the “Mycelia Inhibition, micrograms/cm^2 for 99% control” value in assay [4] (setting [12]), in assay [5] (setting [13]), in assay [6] (setting [14]), in assay [7] (setting [15]) and in assay [8] (setting [16]) was over 1.7 micrograms/cm^2 in each case.
As for `O=S(=O)(C=CSc1ccccc1)C=CSc1ccccc1` [Compound 8], the inhibition at 2 ppm in assay [1] (setting [9]) worked out at 39%; in assay [2] (setting [10]), 0%; in assay [3] (setting [11]), 30%. Besides, the “Mycelia Inhibition, micrograms/cm^2 for 99% control” value was over 1.7 micrograms/cm^2 in assay [4] (setting [12]); 0.88 micrograms/cm^2 in assay [5] (setting [13]); 0.50 micrograms/cm^2 in assay [6] (setting [14]); over 1.7 micrograms/cm^2 in assay [7] (setting [15]); 1.5 micrograms/cm^2 in assay [8] (setting [16]).
For the compound `O=[N+]([O-])c1ccc(SC=CS(=O)(=O)C=CSc2ccc([N+](=O)[O-])cc2)cc1` [Compound 6], the inhibition at 2 ppm was 78% in assay [1], 99% in assay [2] and 90% in assay [3]. For the same compound, the “Mycelia Inhibition, micrograms/cm^2 for 99% control” value in assay [4] is on record as 0.73 micrograms/cm^2; in assay [5] it was 0.50 micrograms/cm^2; in assay [6], 0.34 micrograms/cm^2; in assay [7], over 1.7 micrograms/cm^2; in assay [8], 0.7 micrograms/cm^2.
Consider `O=S(=O)(C=CSc1ccc(Br)cc1)C=CSc1ccc(Br)cc1` [Compound 3, bis-2-(4-bromophenylthio)vinyl sulfone], for which the inhibition at 2 ppm was determined as 94% in assay [1] (setting [9]), 94% in assay [2] (setting [10]) and 40% in assay [3] (setting [11]). Besides, the “Mycelia Inhibition, micrograms/cm^2 for 99% control” value in assay [4] (setting [12]) is given as over 1.7 micrograms/cm^2; in assay [5] (setting [13]), 1.4 micrograms/cm^2; in assay [6] (setting [14]), 0.73 micrograms/cm^2; in assay [7] (setting [15]), over 1.7 micrograms/cm^2; in assay [8] (setting [16]), 1.4 micrograms/cm^2.
In the case of `O=S(=O)(C=CSc1cccc(Cl)c1)C=CSc1cccc(Cl)c1` [Compound 2], the inhibition at 2 ppm amounted to 94% in assay [1] (setting [9]), 100% in assay [2] (setting [10]) and 0% in assay [3] (setting [11]). Also, the “Mycelia Inhibition, micrograms/cm^2 for 99% control” value in assay [4] (setting [12]) is given as over 1.7 micrograms/cm^2; in assay [5] (setting [13]), 1.5 micrograms/cm^2; in assay [6] (setting [14]), 1.1 micrograms/cm^2; in assay [7] (setting [15]), over 1.7 micrograms/cm^2; in assay [8] (setting [16]) it was 1.2 micrograms/cm^2.
`O=S(=O)(C=CSc1ccc(Cl)cc1)C=CSc1ccc(Cl)cc1` [Compound 1]: the figures for the inhibition at 2 ppm in assay [1] (setting [9]) and in assay [2] (setting [10]) were 97% and 68%, respectively. For the same compound, the “Mycelia Inhibition, micrograms/cm^2 for 99% control” value in assay [4] (setting [12]) was 0.22 micrograms/cm^2; in assay [5] (setting [13]), 0.9 micrograms/cm^2; in assay [6] (setting [14]), 0.86 micrograms/cm^2; in assay [7] (setting [15]) it was over 1.7 micrograms/cm^2.
`O=S(=O)(C=CSc1ccc(Cl)c(Cl)c1)C=CSc1ccc(Cl)c(Cl)c1` [Compound 7]: the results for the inhibition at 2 ppm in assay [1] (setting [9]), in assay [2] (setting [10]) and in assay [3] (setting [11]) were 90%, 70% and 95%, respectively. The “Mycelia Inhibition, micrograms/cm^2 for 99% control” value in assay [4] (setting [12]) is 0.78 micrograms/cm^2; in assay [5] (setting [13]) it was 0.97 micrograms/cm^2; in assay [6] (setting [14]), 1.1 micrograms/cm^2; in assay [7] (setting [15]), 1.0 micrograms/cm^2; in assay [8] (setting [16]), 0.70 micrograms/cm^2.
